In one data set the test system is NF-κB. Kind of data set: High throughput assay for NF-κB reporter activity (luciferase) in stably transfected SH-SY5Y cells. The class given is cell-based, human. The settings on record: for EC50 / pEC50: 24 hr; for maximal fold induction / pEC50: Homo sapiens; for maximal fold induction: 24 h, read-out: Emax; for pEC50: read-out: EC50. The procedure: SH-SY5Y human neuroblastoma cell line was obtained from the American Tissue Culture collection (ATCC). A commercially available expression vector containing the NF-kB promoter enhancer region driving the firefly luciferase gene expression and a second plasmid containing the gene conferring resistance to blasticidin were used in a dual transfection approach to obtain a stable cell line. […] Luciferase activity was measured as a reporter of NF-kB activation using the Bright-Glo Luciferase assay kit (Cat. No. E2620, Promega, Madison, Wis.) according to the manufacturer's instructions. Cell viability was measured using the CellTiter-Glo Luminescent Cell Viability assay kit (Cat. No. G7572, Promega, Madison, Wis.) according to the manufacturer's instructions. Briefly, cells were equilibrated at room temperature for 30 min prior to the addition of Bright-Glo to the white opaque plates or CellTiter-Glo to the black clear bottom plates. A volume of assay buffer equal to the volume of cell media was added to each well and incubated for five min to allow complete cell lysis. All procedures were performed in the dark.

The nature of another data set: In vivo PK (I.V./P.O.). The arrangement: species or system mice. The settings on record: I.V./P.O., 1 and 5 mg/kg, respectively. As for the experimental part:
Before the studies above were initiated, congenic SOD1 G93A mice were dosed with 50 mg/kg of compound no. 1 and compound no. 2 via I.P. injection to rule out any toxicity issues prior to initiating the efficacy study (FIG. 4A-C).
The experiments will involve the administration of compounds to 5-6 week old CD1 male mice. Mice are dosed by either a 1 mg/kg IV bolus or 5 mg/kg oral gavage. Blood samples are collected by cardiac puncture at 0, 0.25, 0.5, 1, 2, 4, 6, 8, 12, and 24 hrs. There will be three mice per time point. Plasma concentration over time will be determined by LC/MS from which the standard PK parameters of clearance, volume of distribution, t1/2 and % F can be derived using WinNoLin software (Pharsight Inc.). This will require a total of 60 mice per compound. Plasma will be analyzed by reverse phase chromatography with MS/MS detection operating in the positive ion mode using multiple reaction monitoring using an internal standard and Applied Biosystems Analyst 1.4 software. Peak time (when maximum plasma drug concentration occurs), peak drug level [approximate maximum concentrations of drug in plasma (Cmax)] and t1/2 for drug elimination will be estimated for each tested compound. Bioavailability (F) will be calculated from the ratio of AUCPO/AUCIV and expressed as a percentage. To determine levels in brain, six additional mice will be dosed with 1 mg/kg I.V. and sacrificed at 0.25 and 1 hr. Brain and spinal cord samples will be collected at these two time points, quick frozen in an ice box and kept at −75±15° C. All samples will be weighed and homogenized with phosphate buffered saline (PBS) by brain weight (g) to PBS volume (mL) ratio 1:3 before analysis. The actual concentration is the detected value multiplied by the dilution factor.

Data set [1] relates to SOD2. Kind of data set: Quantitative RT-PCR for SOD2 mRNA in SH-SY5Y neuroblastoma cells. The class given is cell-based, human. The settings on record: 1 μM, 6 h. As for the experimental part:
Referring to FIG. 1A and FIG. 1B, SH-SY5Y neuroblastoma cells were treated with vehicle or compounds (1 μM) for 6 or 24 hours, and cells were collected for RNA isolation (Trizol method). Quantitative RT-PCR for Manganese superoxide dismutase (SOD2; FIG. 1A) or brain-derived neurotrophic factor (BDNF, exon 1; FIG. 1B) indicates short-term upregulation of SOD2 and BDNF and sustained upregulation of BDNF (n=3-4/group, one-way ANOVA followed by unpaired t-test; […]).
Referring to FIG. 6, treatment of SH-SY5Y neuroblastoma cells with compounds (1 μM, 6 h) induced SOD2 mRNA expression >2 fold, as detected by q-RT-PCR. N=4/group, mean+/−SEM, 2-way ANOVA, post-hoc t-test. *p<0.05).

A short description of data set [2]: Plasma and brain levels after I.P. dosing of SOD1 G93A mice. The note with it: 50 mg/kg I.P., within 30 minutes. It counts as in vivo.
Data set [3] concerns SOD2. Kind of data set: Quantitative RT-PCR for SOD2 mRNA in NSC-34 neuroblastoma cells. The class given is cell-based, mouse. The settings on record: NSC-34, 1 μM, 24 h.
Data set [4] concerns SOD1 G93A transgenic mouse. The experiment in a line: Efficacy in the SOD1 G93A transgenic mouse model of ALS. The class given is in vivo. The note with it: 25 mg/kg I.P. daily from day 96. The procedure: Briefly, Congenic SOD1-G93A mice were doced with up to 50 mg/kg of both compounds (IP) to evaluate any toxicity issues prior to initiating the efficacy study. Also, mice administered 20 mg of each compound had high plasma and brain levels at 30 minutes. Next, individually genotyped SOD1-G93A mice (Prize4life-Jackson Labs) were treated with each compound (25 mg/kg, IP) at disease onset (day 96). The treatment extended survival, reduced weight loss and improved the neurologic symptoms. […] The average weight within the groups before the treatment was similar.
While compounds which increase SOD2 expression and activity have potential utility in a number of neurodegenerative diseases involving ROS overproduction, it was decided to test these two compounds in a mouse model of ALS for a variety of reasons, including the evidence for oxidative stress in ALS (described above), the ability of these compounds to induce SOD2 in a motor neuron-like mouse cell line (NSC-34; FIG. 3B), and the availability of a mouse model with dysfunction in SOD1 (human SOD1 G93A transgenic mouse; Jackson Laboratory). The pilot experiment involved treating six wildtype and six SOD1 G93A transgenic males on the C57BL/6 background with 25 mg/kg compound no. 1 and compound no. 2 I.P. daily, beginning around disease onset (day 96; FIG. 4A and FIG. 4B). Mouse survival and behavioral phenotype were observed based on guidelines from “Working with ALS mice: JAX handbook,” using a 4-point severity score (FIG. 4C).
Referring to FIG. 4A and FIG. 4B, SOD1 G93A mice received daily IP injections of saline (control) or compounds (25 mg/kg) starting on day 96.
Referring. To FIG. 4C, progression from neurological score 1 was delayed only by compound no. 2 (2 day delay, +30%), progression to higher (worse) scores was delayed by both compounds. *P<0.05; **P<0.01, 2-way ANOVA.

For data set [5], the system named is SOD2. The experiment in a line: SOD2 protein expression and SOD activity in primary rat cortical cultures. It counts as cell-based. From the text: N=3-6/group, mean+/−SEM, *p<0.05, **p<0.01, 2-way ANOVA, post-hoc t-test.

Structures are written as SMILES. pEC50: −log10 of the molar value. Read-outs that look alike come from different tables or passages of the source. Where only a bound is given, the exact number is not on record here.

The pEC50 is the negative decadic logarithm of the EC50, by convention in mol/L.

As for `COC(=O)c1cccc(-c2cnc(N(c3ccc(F)cc3)C(C)C)o2)c1` [Compound 86], in the data set on NF-κB, the EC50 result is on record as “Inactive” and the maximal fold induction came to 2.2.

`COC(=O)c1cccc(-c2cnc(Nc3ccc(OC)cc3)o2)c1` [Compound 90]: in the data set with NF-κB, the EC50 entry is given as “Inactive” and the maximal fold induction was found to be 2.47.

As to `NCc1cccc(-c2cnc(Nc3ccccc3F)o2)c1` [Compound 96], in the data set on NF-κB, the EC50 result is on record as “Inactive” and the maximal fold induction worked out at 5.14.

Consider `COC(=O)c1ccc(-c2cnc(Nc3ccc(F)cc3)o2)cc1` [Compound 67], for which the EC50 result with NF-κB is “Inactive”.

`Fc1ccc(Nc2ncc(-c3cccc(-c4nnn[nH]4)c3)o2)cc1` [Compound 93]: in the data set on NF-κB, the EC50 result is on record as “Inactive” and the maximal fold induction is 2.59.

As to `O=C(O)c1ccccc1-c1cnc(Nc2cc(F)ccc2F)o1` [Compound 55], in the data set on NF-κB, the EC50 result is given as “Inactive” and the maximal fold induction came out at 4.46.

With `COC(=O)c1cccc(-c2cnc(Nc3c(F)cc(F)cc3F)o2)c1` [Compound 64], in the data set on NF-κB, the maximal fold induction amounted to 12.3 and the negative logarithm of the EC50 (pEC50) is under 5.00.

For `O=C(O)c1cccc(-c2cnc(Nc3c(F)cc(F)cc3F)o2)c1` [Compound 48], in the data set with NF-κB, the maximal fold induction stood at 14.1 and the pEC50 was under 5.00.

On to `O=C(O)c1cccc(-c2cnc(Nc3ccc(Cl)cc3)o2)c1` [Compound 84], for which, in the data set on NF-κB, the maximal fold induction was 11.3 and the pEC50 is 6.12.

For the molecule `COC(=O)c1ccccc1-c1cnc(Nc2cccc(F)c2)o1` [Compound 74], in the data set on NF-κB, the EC50 entry was “Inactive” and the maximal fold induction is 2.37.

For the molecule `O=C(O)c1ccc(-c2cnc(Nc3ccc(F)cc3)o2)cc1` [Compound 51], in the data set with NF-κB, the EC50 entry is “Inactive” and the maximal fold induction amounted to 4.22.

Consider `COC(=O)c1cccc(-c2cnc(Nc3ccc(Cl)cc3)o2)c1` [Compound 85], for which, in the data set with NF-κB, the EC50 entry was “Inactive” and the maximal fold induction was 5.77.

Turning to `O=C(O)c1ccc(-c2cnc(Nc3c(F)cccc3F)o2)cc1` [Compound 53], the EC50 entry in the data set on NF-κB is “Inactive”.

Turning to `O=C(/C=C\Nc1ccccc1Br)c1ccc2c(c1)OCO2` [Compound 1, (Z)-1-(Benzo[d][1,3]dioxol-5-yl)-3-((2-bromophenyl)amino)prop-2-en-1-one], the oral bioavailability result in “In vivo PK (I.V./P.O.)” is recorded as “lack of oral bioavailability”. In addition, the half-life in “In vivo PK (I.V./P.O.)” (male, CD1, mouse, plasma, read-out: plasma half-life (t1/2)) was under 5 min. In addition, the “SOD2 mRNA expression” value with SOD2 [1] (q-RT-PCR) was about 2 fold. In the data set on SOD2 [1] (SH-SY5Y), the “SOD2 mRNA expression” value is “induce SOD2”. For the same molecule, the “plasma and brain levels” value in data set [2] was “substantial plasma and brain levels”. In addition, in the data set with SOD2 [3], the “SOD2 mRNA expression” value is on record as “induce SOD2”. Further, in data set [4], the “progression to higher (worse) neurological scores / score of 4” value is recorded as “delayed” and the survival entry was “significantly prolonged”. In addition, in the data set with SOD2 [5], the SOD2 protein expression result is “induce SOD2” and the SOD activity result is recorded as “increase”. In addition, in the data set on NF-κB, the maximal fold induction amounted to 26 and the pEC50 is 6.30.

As for `COC(=O)c1ccc(-c2cnc(Nc3ccc(F)cc3F)o2)cc1` [Compound 68], in the data set with NF-κB, the maximal fold induction was 4.41 and the negative-log EC50 (pEC50) was under 5.00.

As to `COC(=O)c1ccccc1-c1cnc(Nc2ccccc2F)o1` [Compound 73], in the data set with NF-κB, the EC50 entry was “Inactive” and the maximal fold induction turned out to be 2.37.

With `CCCN(c1ccc(F)cc1)c1ncc(-c2cccc(C(=O)OC)c2)o1` [Compound 89], in the data set on NF-κB, the EC50 entry is reported as “Inactive” and the maximal fold induction worked out at 3.

For the molecule `COC(=O)c1ccccc1-c1cnc(Nc2cc(F)ccc2F)o1` [Compound 77], in the data set with NF-κB, the EC50 result is given as “Inactive” and the maximal fold induction came out at 2.29.

In the case of `COC(=O)c1cccc(-c2cnc(Nc3ccc(C(F)(F)F)cc3)o2)c1` [Compound 87], in the data set with NF-κB, the EC50 entry is “Inactive” and the maximal fold induction came to 5.29.

Take `COC(=O)c1ccccc1-c1cnc(Nc2ccc(F)cc2F)o1` [Compound 76]: in the data set on NF-κB, the EC50 result is recorded as “Inactive” and the maximal fold induction amounted to 4.45.

Take `O=C(O)c1ccc(-c2cnc(Nc3cccc(F)c3)o2)cc1` [Compound 50]: in the data set with NF-κB, the EC50 result was “Inactive” and the maximal fold induction was found to be 6.15.

Turning to `Cc1noc(-c2cccc(-c3cnc(N(C)c4ccc(F)cc4)o3)c2)n1` [Compound 98], in the data set with NF-κB, the EC50 entry is listed as “Inactive” and the maximal fold induction is 3.2.

In the case of `CC(C)N(c1ccc(F)cc1)c1ncc(-c2cccc(C(=O)O)c2)o1` [Compound 83], in the data set with NF-κB, the EC50 result is “Inactive” and the maximal fold induction is 4.5.

As for `COC(=O)c1ccccc1-c1cnc(Nc2ccc(F)cc2)o1` [Compound 75], in the data set with NF-κB, the EC50 entry was “Inactive” and the maximal fold induction was determined as 2.97.

For `COC(=O)c1ccc(-c2cnc(Nc3c(F)cc(F)cc3F)o2)cc1` [Compound 72], in the data set with NF-κB, the EC50 result is on record as “Inactive” and the maximal fold induction stood at 3.97.

Turning to `Nc1cccc(-c2cnc(Nc3ccccc3F)o2)c1` [Compound 97], in the data set with NF-κB, the EC50 result is listed as “Inactive” and the maximal fold induction was 0.55.

As to `O=C(O)c1ccccc1-c1cnc(Nc2ccccc2F)o1` [Compound 54], in the data set with NF-κB, the EC50 result was “Inactive” and the maximal fold induction was 5.37.

For `COC(=O)c1ccccc1-c1cnc(Nc2c(F)cccc2F)o1` [Compound 78], in the data set on NF-κB, the EC50 result is recorded as “Inactive” and the maximal fold induction amounted to 4.36.

Regarding `Fc1ccccc1Nc1nc(-c2ccccn2)no1` [Compound 81, N-(2-fluorophenyl)-3-(pyridin-2-yl)-1,2,4-oxadiazol-5-amine], in the data set on NF-κB, the maximal fold induction worked out at 14.4 and the pEC50 was 5.60.

Regarding `COC(=O)c1cccc(-c2cnc(Nc3ccc(C#N)cc3)o2)c1` [Compound 88], in the data set on NF-κB, the EC50 result is “Inactive” and the maximal fold induction is 3.49.

For the molecule `COC(=O)c1ccc(-c2cnc(Nc3cccc(F)c3F)o2)cc1` [Compound 71], in the data set with NF-κB, the EC50 result is reported as “Inactive” and the maximal fold induction came out at 7.24.

These data come from patent US11472781B2, “2-aminoaryl-5-aryloxazole analogs for the treatment of neurodegenerative diseases” (Southern Research Institute, priority 2018, dated 2022).
